Assay results taken from patent publication EP4563573A1, “COMPOUND, AND PREPARATION METHOD THEREFOR AND USE THEREOF IN PREPARATION OF SEH INHIBITOR AND PPARS AGONIST” (Shenyang Pharmaceutical University, priority 2023, dated 2024).
Where two headings read alike, the source gives them in different places.

Columns and labels:
[1] = tested on: CFA-induced AIA mouse model; conditions: C57BL/6 mice, oral gavage
[2] = tested on: chronic granuloma model; conditions: rats, 20 mg/kg oral gavage once a day for 7 days (medium-dose; celecoxib group)
Description: After the animals were anesthetized by isoflurane inhalation, cotton balls of about 50 mg were buried in the groin of the rats on both sides. The surgical procedure was strictly conducted aseptically. Penicillin was injected intraperitoneally for anti-inflammatory treatment after surgery. Before administration, different drugs were prepared into a concentration of 0.5 mg/mL with pure water in each group, and different test substances were administered by oral gavage at 10 mL/kg, 1 time a day for consecutive 7 days, while the model control group was administrated with an equal volume of pure water. After the last administration, the mice were anesthetized by isoflurane inhalation and then bled, and the cotton ball granuloma was removed and weighed to calculate the degree of swelling (wet weight of cotton ball granuloma - dry weight of cotton ball).
The significant figures of the test data were rounded off and statistical analysis was conducted in accordance with SOP. The software used for statistics was SPSS22.0. Measurement data were expressed as Mean ± standard deviation (x ± s), and Leven's test was used to test normality and homogeneity of variance. If there was no statistical significance (P>0.05), statistical analysis was done using one-factor ANOVA. If ANOVA was statistically significant (P≤0.05), LSD test (parametric method) was used for comparative analysis. […]

[3] = tested on: CFA-induced rheumatoid arthritis model
Description: Except for the normal group, the animals in the other groups were injected with 25 µL/mouse of CFA at the bottom of right feet. Different drugs were prepared with pure water to the corresponding concentrations before administration. 30 min after modeling, different test substances were administrated to the animals in each group by oral gavage at 20 mL/kg, 1 time on the same day. The normal control group and the model control group were given the same volume of pure water. […] On the 20th day after modeling, all model animals were regrouped according to the joint index score and administrated with 20 mL/kg by oral gavage 1 time daily for consecutive 7 days. The joint index score of each group was determined on the 3rd and 7th days after administration, and the pain threshold of the animals was tested with a hot plate instrument after the last administration.
The significant figures of the test data were rounded off and statistical analysis was conducted in accordance with SOP. The software used for statistics was SPSS22.0. Measurement data were expressed as Mean ± standard deviation (x ± s), and Leven's test was used to test normality and homogeneity of variance. If there was no statistical significance (P>0.05), statistical analysis was done using one-factor ANOVA. If ANOVA was statistically significant (P≤0.05), LSD test (parametric method) was used for comparative analysis. If variance was unequal (P≤0.05), the Kruskal-Wallis test was used. If the Kruskal-Wallis test was statistically significant (P≤0.05), Dunnett's Test (nonparametric method) was used for comparative analysis.

[4] = tested on: L-arginine-induced acute pancreatitis model; conditions: 5 mg/kg, n=5
Description: Pathological changes were studied on H&E stained pancreatic sections (FIG. 17).
Specifically, panel (A) represents edema, panel (B) represents inflammatory cells (mononuclear and polymorphonuclear cells), panel (C) represents parenchymal atrophy, and panel (D) represents the total score (edema, mononuclear cell, polymorphonuclear cell, and parenchymal atrophy) (n=5 for each group) *p<0.05, **p<0.01 vs Mod.

[5] = Stability of liver microsomes; conditions: for Average concentration in microsomal buffer: Rat; for half-life: rat, microsomes
Excerpt: Table 5 Average concentration of SP-B07 in microsomal buffer at different time points (ng/mL)

[6] = tested on: CFA-induced AIA mouse model; experiment: CFA-induced AIA mouse model, intraperitoneal injection; type: in vivo; conditions: female KM mice, compared with celecoxib-10 mg/kg
Description: The pain threshold of AIA mice was tested by the hot plate method. […] A curve of the increase in pain threshold over time was plotted (panel (B) in FIG. 10), and the AUC value of the percentage increase in pain threshold was obtained (panel (C) in FIG. 10). […] Finally, the thickness of the paws of the AIA mouse model at different time points after compound injection was evaluated and compared with the thickness of the mouse paws before modeling, and the swelling reduction rate of the mouse paws was calculated.
The pain threshold of AIA mice was tested by the hot plate method. […] A curve of the increase in pain threshold over time was plotted (panel (B) in FIG. 11), and the AUC value of the percentage increase in pain threshold was obtained (panel (C) in FIG. 11). […] Finally, the thickness of the paws of the AIA mouse model at different time points after compound injection was evaluated and compared with the thickness of the mouse paws before modeling, and the swelling reduction rate of the mouse paws was calculated.

[7] = Pharmacokinetics after intravenous and oral administration
Description: Blood levels were measured within 8 hours after oral administration. […] Table 7 PK of SP-B07 after intravenous and oral administration in rats (n=3)

[8] = molecular target: T1, recombinant human sEH (HsEH) (Homo sapiens, UniProt P34913)
T1 sequence (P34913 1-555): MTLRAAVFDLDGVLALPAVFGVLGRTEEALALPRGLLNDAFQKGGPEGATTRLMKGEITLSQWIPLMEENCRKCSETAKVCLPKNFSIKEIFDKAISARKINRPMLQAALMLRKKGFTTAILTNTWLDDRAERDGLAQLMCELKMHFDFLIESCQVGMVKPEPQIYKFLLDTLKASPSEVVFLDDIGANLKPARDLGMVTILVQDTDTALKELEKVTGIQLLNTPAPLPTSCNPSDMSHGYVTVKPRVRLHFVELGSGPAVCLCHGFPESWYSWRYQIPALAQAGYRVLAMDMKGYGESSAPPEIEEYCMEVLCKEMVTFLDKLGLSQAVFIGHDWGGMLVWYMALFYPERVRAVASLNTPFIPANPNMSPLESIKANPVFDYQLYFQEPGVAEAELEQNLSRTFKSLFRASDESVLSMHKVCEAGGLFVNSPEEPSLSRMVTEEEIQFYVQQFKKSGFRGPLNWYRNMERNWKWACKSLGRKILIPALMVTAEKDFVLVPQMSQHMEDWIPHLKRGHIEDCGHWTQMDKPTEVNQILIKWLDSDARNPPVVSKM
Description: (§1) Detection principle: a specific substrate, (3-phenyl-oxy)-acetic acid cyano-(6-methoxy-naphthalen-2-yl) methyl ester, namely PHOME, is non-fluorescent but can be hydrolyzed under the action of sEH enzyme to generate a product 6-methoxy-2-naphthaldehyde. […] Based on the above principle, the inhibition rates of samples with different concentrations were calculated compared with the positive control group. The IC50 value of the compound was calculated based on the inhibition rate and concentration using SPSS 20 software.
(§2) PHOME solution: 0.79 mg PHOME was dissolved in 106 µL DMSO to obtain a 20 mM PHOME solution, which was diluted to 1/3 mM with Tris-HCl buffer when used.
(§3) sEH solution: sEH (5 mg/mL) stock solution was stored in a -80°C refrigerator and diluted to 4 µg/mL with 25 mM Tris-HCl buffer when used.
(§4) A sample powder to be tested was dissolved in DMSO to a 20 mM solution, stored in a - 20°C refrigerator for later use, and diluted with Tris-HCl buffer to the corresponding concentration when used.
(§5) Experimental design: solvent group, 100% activity group (A), inhibitor group (B), positive control group (C), as shown in Table 1.
(§6) Three replicate wells were set for each sample, and the average of the three replicate wells was the fluorescence value (F) of the compound to be tested. […] The IC50 value of the compound was calculated based on the inhibition rate and concentration using SPSS 20 software.
(§7) The activity of the compounds was evaluated using a biochemical method with [cyano-(6-methoxynaphthalen-2-yl)methyl] 2-(3-phenyloxiran-2-yl)acetate (PHOME) as a substrate using recombinant human sEH (HsEH) and murine sEH (MsEH).

[9] = molecular target: T2, PPARγ (Homo sapiens, UniProt P37231); experiment: PPARγ agonist activity test (luciferase reporter gene); type: cell-based; conditions: for PPARγ (compared with Rosiglitazone, %): relative to Rosiglitazone
T2 sequence (P37231 204-505): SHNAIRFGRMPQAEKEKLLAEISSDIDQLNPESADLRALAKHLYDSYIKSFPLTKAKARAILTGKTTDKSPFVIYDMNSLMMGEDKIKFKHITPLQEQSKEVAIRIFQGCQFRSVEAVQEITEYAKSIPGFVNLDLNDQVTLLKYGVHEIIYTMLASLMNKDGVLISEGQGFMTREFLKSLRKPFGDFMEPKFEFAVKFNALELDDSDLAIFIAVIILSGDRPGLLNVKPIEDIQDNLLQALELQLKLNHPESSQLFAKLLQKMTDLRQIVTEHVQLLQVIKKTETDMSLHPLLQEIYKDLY
Excerpt: • 1. PPARγ agonist activity test Detection principle: when pM-hPPAR binds to the appropriate ligand, and is activated and binds to the GAL4DNA binding site in the plasmid pB4-RES-tk-luc, thereby initiating the expression of the downstream luciferase reporter gene. The amount of luciferase is detected to determine whether the compound to be tested is a PPAR agonist. • 2.

[10] = tested on: CD60 diet + streptozotocin-induced diabetes; experiment: CD60 feed + streptozotocin-induced diabetes model; type: in vivo, male C57BL/6 mice; conditions: SP compounds 30 and 90 mg/kg; pioglitazone 3 mg/kg
Excerpt: Diabetes is a chronic metabolic disease characterized by elevated blood glucose, and its incidence has been increasing over the past few decades. There is no desirable therapeutic drug at present, and the research on drugs for the treatment of diabetes and its related complications such as diabetic pain is highly urgent. […] Compared with the Control group, ****P<0.0001, ***P<0.001, **P<0.01 and *P<0.05.

[11] = tested on: LPS-induced sepsis model; experiment: LPS-induced sepsis model; type: in vivo, Male C57BL/6 mice; conditions: LPS 25 mg/kg i.p., administration 4 h after modeling, twice at 8 h interval, n=7
Description: The drug was administered twice, with an interval of 8 h between administrations.

[12] = molecular target: T3, murine sEH (MsEH) (Mus musculus, UniProt P34914); experiment: biochemical
T3 sequence (P34914 1-554): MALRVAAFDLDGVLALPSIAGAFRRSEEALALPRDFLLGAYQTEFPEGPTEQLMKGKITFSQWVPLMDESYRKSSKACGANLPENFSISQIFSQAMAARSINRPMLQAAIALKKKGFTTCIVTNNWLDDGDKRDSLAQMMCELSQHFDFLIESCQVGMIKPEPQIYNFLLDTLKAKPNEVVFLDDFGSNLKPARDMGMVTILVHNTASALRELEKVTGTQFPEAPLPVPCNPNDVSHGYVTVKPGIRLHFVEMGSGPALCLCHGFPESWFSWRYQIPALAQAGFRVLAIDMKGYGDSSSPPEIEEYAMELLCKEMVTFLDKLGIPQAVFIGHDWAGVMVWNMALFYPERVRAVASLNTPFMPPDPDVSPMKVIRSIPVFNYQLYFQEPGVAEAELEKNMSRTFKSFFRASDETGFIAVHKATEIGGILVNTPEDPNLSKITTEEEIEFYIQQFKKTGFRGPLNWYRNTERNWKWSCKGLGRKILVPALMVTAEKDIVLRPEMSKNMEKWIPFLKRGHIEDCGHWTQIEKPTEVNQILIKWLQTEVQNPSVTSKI
Description: as §1, §2, §3, §4, §5, §6, §7

[13] = Plasma protein binding rate (equilibrium dialysis); conditions: rat
Description: The plasma protein binding rate (%PPB) of SD rats was measured by classical equilibrium dialysis apparatus.

[14] = molecular target: T3, murine sEH (MsEH); conditions: read-out: MsEH IC50, PHOME substrate
Description: as §1, §2, §3, §4, §5, §6, §7

[15] = 30 mg/kg oral gavage (medium-dose; celecoxib group), 0.5 h after administration
[16] = 30 mg/kg oral gavage (medium-dose; celecoxib group), 2 h after administration
[17] = 30 mg/kg oral gavage (medium-dose; celecoxib group), 4 h after administration
[18] = read-out: HsEH IC50, recombinant human sEH, PHOME substrate

Cc1ccc(-c2cc(C(F)(F)F)nn2-c2ccc(S(N)(=O)=O)cc2)cc1 [Celecoxib, celecoxib]
time after administration at which the pain threshold began to rise [1]: 30 min
Swelling degree [2]: 0.9904±0.12++
Pain threshold in acute inflammatory state ([3]; 30 mg/kg group (medium-dose; celecoxib group), Before administration): 20.7±4.2
Pain threshold in chronic inflammatory state ([3]; 30 mg/kg oral gavage (medium-dose; celecoxib group), once daily for 7 days, End of administration): 13.7±4.6
Acute pain threshold increase rate of mice [3, 15]: -35.2±29.8%
Pain threshold in acute inflammatory state [3, 15]: 13.2±6.3
Acute pain threshold increase rate of mice ([3]; 30 mg/kg oral gavage (medium-dose; celecoxib group), 1 h after administration): -52.3±55.5%
Acute pain threshold increase rate of mice [3, 16]: 34.52±54.1 %
Pain threshold in acute inflammatory state [3, 16]: 23.9±5.3
Acute pain threshold increase rate of mice [3, 17]: -11.6±32.6 %
Pain threshold in acute inflammatory state [3, 17]: 18.7±6.0
pancreatic injury histological score [4]: 3.50±1.80

O=C(Nc1ccc(OC(F)(F)F)c(F)c1)NC1CCC(Oc2ccc(C=C3SC(=O)NC3=O)cc2)CC1 (stereo not drawn) [SP-B07, 1-((1r,4r)-4-{4-[(E)-(2,4-dioxothiazolidin-5-ylidene)methyl]phenoxy}cyclohexyl)-3-[3-fluoro-4-(trifluoromethoxy)phenyl]urea]
Average concentration in microsomal buffer ([5]; 0 min): 100 ng/mL
Average concentration in microsomal buffer ([5]; 10 min): 86.26 ng/mL
Average concentration in microsomal buffer ([5]; 60 min): 58.82 ng/mL
Average concentration in microsomal buffer ([5]; 120 min): 57.01 ng/mL
Average concentration in microsomal buffer ([5]; 240 min): 55.61 ng/mL
Average concentration in microsomal buffer ([5]; 360 min): 52.33 ng/mL
Average concentration in microsomal buffer ([5]; 720 min): 43.73 ng/mL
half-life ([5]; half-life (t1/2) in rat liver microsomes, rat liver microsomes): 5.5 h
half-life ([5]; t1/2, rat liver microsomes, table): 5.5 h
analgesic effect (percentage increase in pain threshold, hot plate method) [6]: better than that of celecoxib
detumescence rate on mouse paws (swelling reduction rate) [6]: superior to celecoxib
AUC(0-inf) ([7]; rat, in vivo, iv, 10 mg/kg): 16.9 µM·h
AUC(0-t) at 8 h ([7]; rat, in vivo, iv, 10 mg/kg): 14.1 µM·h
Cmax ([7]; rat, in vivo, iv, 10 mg/kg): 3290 nM
Tmax ([7]; rat, in vivo, iv, 10 mg/kg): 0.083 h
Vd ([7]; rat, in vivo, iv, 10 mg/kg): 3.71 L/kg
clearance ([7]; rat, in vivo, iv, 10 mg/kg): 13.2 mL/min/kg
half-life ([7]; rat, in vivo, iv, 10 mg/kg, t1/2, rats, i.v. 10 mg/kg): 1.91 h
AUC(0-inf) ([7]; rat, in vivo, po, 50 mg/kg): 17.7 µM·h
AUC(0-t) at 8 h ([7]; rat, in vivo, po, 50 mg/kg): 13.8 µM·h
Cmax ([7]; rat, in vivo, po, 50 mg/kg): 1140 nM
Tmax ([7]; rat, in vivo, po, 50 mg/kg): 0.5 h
bioavailability ([7]; rat, in vivo, po, 50 mg/kg): 19.5%
time at which maximum concentration was reached after intravenous injection ([7]; rats, i.v. 10 mg/kg): 2 min
t1/2 ([7]; rats, i.v. 10 mg/kg, 10 mg/kg): 3.26 h
IC50 [8]: 0.06 nM
EC50 [9]: 1430 nM
PPARγ (compared with Rosiglitazone, %) [9]: 19.3%
lowering blood glucose and improving diabetic neuropathic pain [10]: effective
increase of the survival rate [11]: 42.8%
IC50 [12]: 0.42 nM
fraction unbound [13]: 0.0471

CCC(=O)Nc1ccc(OC2CCCC(NC(=O)NC34CC5CC(C)(CC(C)(C5)C3)C4)C2)cc1 (stereo not drawn) [SP-C01m]
IC50 [14]: 6.7 nM
IC50 [8, 18]: 0.9 nM
PPARγ (compared with Rosiglitazone, %) [9]: 0.9%

CCC(C)C(=O)Nc1ccc(OC2CCCC(NC(=O)NC34CC5CC(C)(CC(C)(C5)C3)C4)C2)cc1 (stereo not drawn) [SP-C01n]
IC50 [14]: 1.3 nM
IC50 [8, 18]: 0.7 nM
PPARγ (compared with Rosiglitazone, %) [9]: 0.7%

COC(=O)CN1C(=O)S/C(=C\c2ccc(O[C@H]3CC[C@H](NC(=O)Nc4ccc(OC(F)(F)F)cc4)CC3)cc2)C1=O [SP-D01, methyl 2-(2,4-dioxo-5-((Z)-4-(((1r,4r)-4-(3-(4-(trifluoromethoxy)phenyl)ureido)cyclohexyl)oxy)benzylidene)thiazolidin-3-yl)acetate]
IC50 [14]: 2.4 nM
IC50 [8, 18]: 1.1 nM
PPARγ (compared with Rosiglitazone, %) [9]: 1.1%

COC(=O)CN1C(=O)S/C(=C\c2ccc(O[C@H]3CC[C@H](NC(=O)NC45CC6C[C@@](C)(C4)C[C@](C)(C6)C5)CC3)cc2)C1=O [SP-D04, methyl 2-(5-((Z)-4-(((1R,4r)-4-(3-((1R,3R,5S,7R)-3,5-dimethyladamantan-1-yl)ureido)cyclohexyl)oxy)benzylidene)-2,4-dioxythiazolin-3-yl)acetate]
IC50 [14]: 10.1 nM
IC50 [8, 18]: 1.2 nM
PPARγ (compared with Rosiglitazone, %) [9]: 1.2%

C[C@@H]1C[C@H]2[C@@H]3CCC4=CC(=O)C=C[C@]4(C)[C@@]3(F)[C@@H](O)C[C@]2(C)[C@@]1(O)C(=O)CO [dexamethasone, reference compound]
increase of the survival rate [11]: 57.1%
